In ChEMBL document CHEMBL3301361, “Experimental in vitro DMPK and physicochemical data on a set of publicly disclosed compounds”:

test: physchem; conditions: octan-1-ol/water, pH 7.4, LogD7.4

SMILES | logD
CC(C)C(NC(=O)Cn1c(-c2ccccc2)ccc(NS(N)(=O)=O)c1=O)C(=O)C(F)(F)F (centres undefined) | 1.17
CC(C)C(NC(=O)Cn1c(-c2cccs2)ncc(N)c1=O)C(=O)C(F)(F)F (centres undefined) | 0.68
CC(C)C(NC(=O)Cn1c(-c2ccccc2)ccc(NC(=O)NCc2cc[n+]([O-])cc2)c1=O)C(=O)C(F)(F)F (centres undefined) | 1.13
COC(=O)c1c(O)cccc1OC/C=C/c1ccc(F)c(-c2cc(C(=O)O)no2)c1 | 0.66
O=c1[nH]n(C(c2ccccn2)C2CC2)c(=O)c2c(O)c3ccc(Cl)cc3nc12 (centres undefined) | 1
O=c1[nH]n(C(c2ccccc2)c2ccncc2)c(=O)c2c(O)c3ccc(Cl)cc3nc12 (centres undefined) | 1.1
N=C(N)Nc1ccc(C(=O)Oc2ccc(Cl)cc2)cc1 | 0.7
N=C(N)SCc1ccc(Cl)c(Cl)c1 | 1.28
CC(C)Nc1ccc2cnn(-c3cncc(-n4ccc(CC(=O)O)c4)n3)c2c1 | 1.24
Cc1nc(C(=O)N2CCCC3(CCN(Cc4ccc(Cl)cc4)CC3)C2)cs1 | 0.64
Nc1ccc(S(=O)(=O)N2CCCC2)cc1 | 0.98
O=c1[nH][nH]c(=O)c2c(O)c3c(Cl)cc(Cl)cc3nc12 | 0.89
O=C([C@@H](O)CO)N1CC=C(c2ccc(N3C[C@H](COc4ccon4)OC3=O)cc2F)CC1 | 1.09
Nc1n[nH]c2ccccc12 | 1
O=C(Oc1ccccc1)N1CCOCC1 | 1.3
Cn1sc(NC(=O)c2cccc(Cl)c2)nc1=O | 0.87
c1ccc2nc(C3=NCCN3)ccc2c1 | 0.6
Cn1c(-c2ccc(O)nc2)nc2ccccc21 | 1.2
CCn1c(=O)c2c(=O)cc(O)oc2c2ccccc21 | 1.13
O=Cc1ccccc1B(O)O | 0.83
O=c1c2ccccc2nc2n1CCO2 | 0.6
NC(=O)c1cccnc1Oc1ccccc1 | 1.13
O=S(=O)(Nc1cccnc1)c1ccccc1 | 0.84
Nc1n[nH]c(Nc2ccccc2)n1 | 1.06

SMILES | logD
CCCCN1Cc2c(nc3cc(-c4ccco4)nn3c2O)C1=O | 0.8
FC(F)(F)c1nnc2ccc(-n3ccnc3)nn12 | 0.91
Cc1cccc(C(N)=O)c1NC(=O)c1ccccc1 | 1.09
Cc1nc2c(C#N)cnn2c(O)c1Cc1ccccc1 | 0.68
NC(=O)Cc1nc(-c2ccccc2)cs1 | 1.3
O=S(=O)(Nc1nnc(-c2ccccc2)s1)c1ccc(Cl)cc1 | 1.14
CCOC(=O)c1cc2ccc(O)cc2oc1=O | 1.2
CC(=O)Nc1ccccc1C | 1
Nc1[nH]ncc1S(=O)(=O)c1ccccc1 | 1.1
COc1ccc(Nc2ccccc2C(=O)O)cc1 | 1.2
Cc1cc(N)n(-c2ccccc2)n1 | 1.25
Cc1nnsc1C(=O)Nc1ccccc1 | 0.97
CC1CN(C(=O)c2nnc3c(-c4ncccn4)cccc3c2N)C1 | 1.21
Cc1cc(CN2Cc3cccnc3CC2C(=O)Nc2ccc(Cl)cc2Cl)ccc1OCC(=O)O (centres undefined) | 1.15
CCCc1c(OCCCCSCC(=O)O)ccc(C(C)=O)c1O | 1.3
C#Cc1cccc(Nc2nc3cc(C(=O)O)ccc3c3cncnc23)c1 | 0.92
Cc1nc(CS(=O)(=O)c2ccccc2)cc(N2CCOCC2)n1 | 1.07
CN(C)C(=O)N1CCC(C(=O)NCc2cccs2)CC1 | 1.1
CCNCc1cncc(-c2ccc(F)cc2OC)n1 | 1.18
Cc1noc(C)c1CCC1CCN(S(=O)(=O)CC2(N(O)C=O)CCOCC2)CC1 | 0.9
CC(C)(CS(=O)(=O)N1CCN(c2ccc(F)cc2)CC1)N(O)C=O | 1.07
O=c1[nH]c2c(O)ccc([C@@H](O)CNCCOCCCNCCc3cccc(Cl)c3)c2s1 | 0.83
C[C@H]1O[C@@H](n2cnc3c(N)nc(Oc4ccccc4)nc32)[C@H](O)[C@@H]1O | 1.05
O=C(O)CCn1c2ccccc2c2ccccc21 | 0.6

SMILES | logD
Cc1ccc(NC(=O)c2ccnc(N3CCOCC3)c2)cc1Nc1ccnc(OCCCN(C)C)n1 | 1.3
Cc1c(Sc2ccc(Cl)cc2)c2c(Cl)nccc2n1CC(=O)O | 0.92
c1ccc(CNCCNCc2ccccc2)cc1 | 0.73
CC(C)Oc1cc(OCCc2cccnc2)cc(C(=O)Nc2ccc(C(=O)O)cn2)c1 | 0.81
O=c1[nH]c2c(O)ccc([C@@H](O)CNCCc3ccc(CNCCc4ccccc4)cc3)c2s1 | 1.11
O=c1[nH]c2c(O)ccc([C@@H](O)CNCCc3cccc(CNCc4ccccc4F)c3)c2s1 | 0.69
CN[C@@H](C)C(=O)N[C@H](C(=O)N[C@H]1CCCN(CCc2ccc(O)cc2)C1)C(C)(C)C | 0.77
Nc1ncnc2sccc12 | 1.19
O=c1cc(N2CCOCC2)oc2cc(O)ccc12 | 1
Cc1nc2ccc(NC(=O)CCNC(N)=O)cc2s1 | 0.9
NC(=O)c1cc2ccccc2nc1N | 1.07
N#Cc1ccc(-c2cc(NC(N)=O)c(C(=O)N[C@H]3CCCNC3)s2)cc1 | 0.61
NC(=O)Nc1cc(-c2ccccc2)sc1C(=O)N[C@H]1CCCNC1 | 1.04
N#Cc1cccc(-c2cccc(-c3nn[nH]n3)c2)c1 | 0.7
CC1CC(=O)Nc2ccccc2N1 (centres undefined) | 0.56
O=C(O)CCCS(=O)(=O)c1cccc(C(=O)N2CCC(N3CCC(Oc4ccc(Cl)c(Cl)c4)CC3)CC2)c1 | 0.66
CN1CCN(c2ccc(Nc3ccnc4ccccc34)cc2)CC1 | 1.3
CCCSc1c(C(=O)NC2CCCCC2)cnn1-c1ccc(C(=O)O)cc1 | 0.64
CCCSc1c(C(=O)N(C)C2CCCCC2)cnn1-c1ccc(C(=O)O)cc1 | 0.59
Nc1nc(-c2ccc(O)cc2)cc(=O)[nH]1 | 1.05
CS(=O)(=O)c1ccccc1C(=O)NCC(O)CNC1CCN(Cc2ccc(Cl)c(Cl)c2)CC1 (centres undefined) | 1.21
O=S(=O)(Nc1cccnc1)c1cccs1 | 0.54
O=c1c2ccc(Cl)cc2[nH]c2c(O)nn(Cc3ccsc3)c(=O)c12 | 1.11
Cc1ccsc1Cn1[nH]c(=O)c2[nH]c3cc(Cl)ccc3c(=O)c2c1=O | 1.15

SMILES | logD
COc1cc(/C=C2/SC(=O)NC2=O)cc(OC)c1O | 0.74
OCC[C@]1(c2ccc(Cl)c(Cl)c2)CCCNC1 | 0.61
OCC[C@@]1(c2ccc(Cl)c(Cl)c2)CCCNC1 | 0.62
CC(NC(=O)C1(N)CCN(c2ncnc3[nH]ccc23)CC1)c1ccccn1 (centres undefined) | 1.3
CC(NC(=O)C1(N)CCN(c2ncnc3[nH]ccc23)CC1)c1ccc(S(C)(=O)=O)cc1 (centres undefined) | 1
NC1(C(=O)NC(CCCN2CCCC2)c2ccc(Cl)cc2)CCN(c2ncnc3[nH]ccc23)CC1 (centres undefined) | 1.3
CCOc1ccccc1-c1ccc(-c2nc3ccc(F)cc3c(C(=O)O)c2C)cc1 | 1.18
CNCc1cccc(-c2ccc3c(N4CCOCC4)nc(N4C[C@@H](C)O[C@@H](C)C4)nc3n2)c1 | 1.26
O=C(COc1ccccc1)N1CCOCC1 | 0.75
CC1(c2ccccc2)CC(=O)NC(N)=N1 (centres undefined) | 0.62
O=C(O)COc1ccc(Cl)cc1C1CCCCC1 | 0.93
CCNCc1cnc(-c2ccc(C(=O)Nc3ccccc3N)cc2)s1 | 0.95
Cn1sc(NC(=O)c2ccccc2)nc1=O | 1.13
CCOC(=O)c1cc(O)c(-c2ccccc2)nn1 | 0.69
COc1cc2c(Nc3ccc(Cl)cc3F)ncnc2cc1OCC1CCNCC1 | 1.1
NCC(O)(c1ccccc1)c1ccccc1 | 0.9
CC(C)C(NC(=O)Cn1c(-c2ccccc2)ccc(NC(=O)OCc2ccc(C(=O)O)cc2)c1=O)C(=O)C(F)(F)F (centres undefined) | 0.84
O=S(=O)(Nc1nccs1)c1cc(Cl)ccc1Cl | 1.14
CC(C)C(NC(=O)Cn1c(-c2ccccc2)ccc(NC(=O)Cc2ccccc2C(=O)O)c1=O)C(=O)C(F)(F)F (centres undefined) | 1.14
CC(C)C(NC(=O)Cn1c(-c2cccc(C(=O)O)c2)ccc(NC(=O)OCc2ccccc2)c1=O)C(=O)C(F)(F)F (centres undefined) | 1.2
O=S(=O)(NCCNc1ncccn1)c1cccc2cnccc12 | 0.61
O=c1ccc(=O)c2ccccc2[nH]1 | 1.02
C[Si](C)(C)C#Cc1cn(C[C@H]2CN(c3ccc(C4=CCS(=O)(=O)CC4)c(F)c3)C(=O)O2)nn1 | 1.26
CN(CCCc1ccccc1)S(=O)(=O)c1cc(C(=O)N2CCc3ccc(S(=O)(=O)NCCc4ccccc4)cc3C2)c(O)c(O)c1O | 0.75

SMILES | logD
CC(C)C[C@H](N)c1nnc(S(=O)(=O)Cc2ccc(F)cc2)o1 | 1.11
COc1cc(C(=O)NS(=O)(=O)c2ccccc2)ccc1Cn1cnc2ccc(NC(=O)CC3CCCC3)cc21 | 0.9
CC(C)C(NC(=O)Cn1c(-c2ccccc2)ccc(NC(=O)Cc2cccc(C(=O)O)c2)c1=O)C(=O)C(F)(F)F (centres undefined) | 0.68
CC(=O)NC[C@H]1CN(c2ccc(-n3ccnc3)c(F)c2)C(=O)O1 | 0.7
CC(C)C(NC(=O)Cn1c(-c2ccc(F)cc2)ncc(N)c1=O)C(=O)C(F)(F)F (centres undefined) | 1.05
c1ccc(C2OC3(CCNCC3)c3ccccc32)cc1 (centres undefined) | 0.75
c1cnc2cccnc2c1 | 0.89
NC(=O)Nc1sc(-c2ccc(OCCN3CCCCC3)cc2)cc1C(N)=O | 1.2
CSc1nc(C(N)=O)c(N)s1 | 1.21
CN[C@H]1CCN(C(=O)c2ccc(Nc3nccc(-c4cnc(C)n4C(C)C)n3)cc2)C1 | 1.22
COC(=O)COc1ccc(O)cc1 | 0.92
COc1cc2c(Nc3ccc(F)c(Cl)c3)c(C(N)=O)cnc2cc1OCCCN1CCN(C)CC1 | 1.2
NC(=O)Nc1sc(-c2ccccc2)cc1C(=O)N[C@H]1CCCNC1 | 1.27
CNC(=O)c1ccc(-c2cc(C(=O)N[C@H]3CCCNC3)c(NC(N)=O)s2)cc1 | 0.7
O=C(c1cc(Cc2n[nH]c(=O)c3ccccc23)ccc1F)N1CCN(C(=O)C2CCCO2)CC1 (centres undefined) | 0.9
COc1ccccc1-c1nnc(N)[nH]1 | 0.91
Cc1ccc(-c2ccc(S(=O)(=O)N3CCC[C@H]3C(=O)N3CC[C@@H](N)C3)cc2F)o1 | 1.2
CS(=O)(=O)c1ccc(-c2cc(C(=O)N[C@H]3CCCNC3)c(NC(N)=O)s2)cc1 | 0.68
Cc1cc2nc(NC(=N)N)nc(C)c2cc1C | 0.7
Nc1nc(SCc2ccccc2)nc2c1ncn2[C@@H]1O[C@H](CO)[C@@H](O)[C@H]1O | 1.24
COc1ccc2nc3ccccc3c(N)c2c1 | 1
CN(C)c1cccc2c(S(=O)(=O)Nc3cnccn3)cccc12 | 0.9
COC1/C=C/OC2(C)Oc3c(C)c(O)c4c(c3C2=O)C(=O)C=C(NC(=O)/C(C)=C\C=C\C(C)C(O)C(C)C(O)C(C)C(OC(C)=O)C1C)C4=O (centres undefined) | 0.7
